{"source": "patent US20240091115A1", "about": "“Oral Care Compositions and Methods of Use” (Colgate-Palmolive Company, priority 2019, published 2024)", "key": {"mixed species biofilm": {"tested_on": "mixed species biofilm", "experiment": "Seahorse XFe Extracellular Flux Analyzer, bacterial metabolism (OCR/ECAR) in mixed species biofilm", "format": "cell-based", "conditions": "oxygen consumption rate", "procedure": "(§1) Samples with varying amounts of cannabidiol (CBD) are assessed for their effects on cellular metabolism with and without various source of zinc. Using the Seahorse XF^e Extracellular Flux Analyzer, biofilm samples are grown for 48 hrs. […] The biofilms are harvested for culture. Diluted biofilm and toothpaste slurry are loaded to each well. Glycolysis—Extracellular Acidification Rate (ECAR) and Mitochondrial Respiration—Oxygen Consumption Rate (OCR) is measured for 25-50 cycles (˜360 minutes). […] The “CBD Oil” is 5% CBD (by wt. of the CBD Oil) in Hemp seed oil.\nWhere the “OCR” is oxygen consumption rate units as measured using the Seahorse XF^e Extracellular Flux Analyzer.: […]"}, "S. mutans biofilms": {"tested_on": "S. mutans biofilms", "experiment": "Seahorse XFe Extracellular Flux Analyzer, bacterial metabolism (OCR/ECAR) in S. mutans biofilm", "format": "cell-based", "conditions": "CBD and arginine slurries", "procedure": "as §1"}}}
{"smiles": "[F][Sn][F]", "note": "[0.2% by wt. Stannous Fluoride, Stannous Fluoride]", "values": [{"measurement": "Average (OCR) (p mole/min)", "setting": "mixed species biofilm; Table 3, mixed species biofilm, CBD and stannous fluoride slurries, untreated 11489.9", "value": 10440.7, "unit": "p mole/min"}]}
{"smiles": "N=C(N)NCCC[C@H](N)C(=O)O", "note": "[1% Arg, arginine]", "values": [{"measurement": "OCR Value (p mole/min)", "setting": "S. mutans biofilms; Table 4, oxygen consumption rate, untreated 1449.50", "value": 518.58, "unit": "p mole/min"}, {"measurement": "ECR Value (mpH/min)", "setting": "S. mutans biofilms; Table 5, extracellular acidification rate, untreated 701.2", "value": 518.6, "unit": "mpH/min"}]}
{"smiles": "CC(O)C(=O)[O-].CC(O)C(=O)[O-].[Zn+2]", "note": "(stereo not shown) [1.5% Zinc Lactate, Zinc Lactate]", "values": [{"measurement": "Average (OCR) (p mole/min)", "setting": "mixed species biofilm; Table 1, mixed biofilm, CBD and zinc lactate, untreated 25,669.50", "value": "21,900.63 p mole/min"}]}
